Source: ChEMBL document CHEMBL4673325, “Identification of 2-substituted pyrrolo[1,2-b]pyridazine derivatives as new PARP-1 inhibitors” (Bioorg Med Chem Lett, 2021)

Key:
Homo sapiens = species: Homo sapiens; experiment: Selectivity index, ratio of IC50 for PARP-2 (unknown origin) to IC50 for PARP-1 (unknown origin)
[1] = target: Poly [ADP-ribose] polymerase 1 (Homo sapiens, UniProt P09874); experiment: Inhibition of PARP-1 (unknown origin)
[2] = target: Poly [ADP-ribose] polymerase 2 (Homo sapiens, UniProt Q9UGN5); experiment: Inhibition of PARP-2 (unknown origin)
Sequence of Poly [ADP-ribose] polymerase 2 (Q9UGN5 whole entry): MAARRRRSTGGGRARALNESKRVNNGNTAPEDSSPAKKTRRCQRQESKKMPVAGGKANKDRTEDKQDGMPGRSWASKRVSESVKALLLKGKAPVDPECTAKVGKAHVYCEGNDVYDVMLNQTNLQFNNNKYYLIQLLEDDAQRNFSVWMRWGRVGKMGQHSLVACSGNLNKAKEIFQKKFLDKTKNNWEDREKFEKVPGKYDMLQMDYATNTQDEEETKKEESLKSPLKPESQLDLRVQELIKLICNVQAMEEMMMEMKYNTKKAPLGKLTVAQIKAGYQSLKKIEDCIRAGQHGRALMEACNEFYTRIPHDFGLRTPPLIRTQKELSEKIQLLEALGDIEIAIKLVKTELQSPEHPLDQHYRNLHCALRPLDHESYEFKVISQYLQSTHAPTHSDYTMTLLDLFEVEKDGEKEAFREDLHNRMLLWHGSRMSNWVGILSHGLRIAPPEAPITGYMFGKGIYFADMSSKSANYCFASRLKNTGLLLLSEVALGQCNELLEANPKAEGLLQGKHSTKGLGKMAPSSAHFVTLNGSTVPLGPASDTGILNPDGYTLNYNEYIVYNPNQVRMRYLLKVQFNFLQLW

[3] = Antiproliferative activity against BRCA2 deficient chinese hamster V-C8 cells; type: functional, Cricetulus griseus
MDA-MB-436 [4] = experiment: Antiproliferative activity against BRCA1 deficient human MDA-MB-436 cells; type: functional
MDA-MB-436 [5] = experiment: Antitumor activity against human MDA-MB-436 cells harboring BRCA1 mutation xenografted in mouse assessed as tumor growth inhibition administered orally for 21 days; type: functional; conditions: time 21.0 day

Sequence of Poly [ADP-ribose] polymerase 1 (P09874 whole entry): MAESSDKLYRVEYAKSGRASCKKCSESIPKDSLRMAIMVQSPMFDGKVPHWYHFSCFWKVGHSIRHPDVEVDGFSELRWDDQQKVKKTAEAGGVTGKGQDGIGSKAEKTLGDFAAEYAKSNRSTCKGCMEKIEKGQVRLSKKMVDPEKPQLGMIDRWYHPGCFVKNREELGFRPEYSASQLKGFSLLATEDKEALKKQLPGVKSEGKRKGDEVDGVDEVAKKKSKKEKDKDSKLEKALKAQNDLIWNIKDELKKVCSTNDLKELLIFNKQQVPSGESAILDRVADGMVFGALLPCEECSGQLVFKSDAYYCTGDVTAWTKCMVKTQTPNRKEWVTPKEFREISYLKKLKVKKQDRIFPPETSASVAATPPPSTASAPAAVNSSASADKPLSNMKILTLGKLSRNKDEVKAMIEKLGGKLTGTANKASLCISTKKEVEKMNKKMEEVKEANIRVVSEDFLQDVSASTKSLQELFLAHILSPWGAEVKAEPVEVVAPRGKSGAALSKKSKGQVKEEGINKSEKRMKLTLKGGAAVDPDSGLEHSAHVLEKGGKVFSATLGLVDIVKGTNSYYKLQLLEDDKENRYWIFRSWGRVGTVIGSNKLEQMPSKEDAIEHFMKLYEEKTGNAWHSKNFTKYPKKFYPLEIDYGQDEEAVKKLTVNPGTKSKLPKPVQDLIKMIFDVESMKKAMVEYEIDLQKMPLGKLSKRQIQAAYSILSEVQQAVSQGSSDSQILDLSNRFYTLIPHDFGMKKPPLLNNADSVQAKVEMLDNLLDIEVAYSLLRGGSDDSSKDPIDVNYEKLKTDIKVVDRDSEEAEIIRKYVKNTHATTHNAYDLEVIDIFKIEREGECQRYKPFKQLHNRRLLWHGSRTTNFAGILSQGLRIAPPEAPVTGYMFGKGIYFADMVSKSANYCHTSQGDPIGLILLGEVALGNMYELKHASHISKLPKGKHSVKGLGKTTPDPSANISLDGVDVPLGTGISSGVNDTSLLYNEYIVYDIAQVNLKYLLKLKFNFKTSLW

Row | Structure (SMILES) | Ratio IC50 (Homo sapiens) | IC50 [1] [µM] | IC50 [2] [µM] | CC50 ([3]; Cricetulus griseus, V-C8) [µM] | CC50 (MDA-MB-436 [4]; Homo sapiens, MDA-MB-436) [µM] | CC50 [3] [µM] | CC50 (MDA-MB-436 [4]) [µM] | TGI (MDA-MB-436 [5])
1 | COC1CCN(C(=O)c2ccc(-c3ccc4c(Cl)cc(C(N)=O)n4n3)c(F)c2)CC1 | 8.9 | 0.114 | 1.64 | – | – | – | – | –
2 | CC(C)(C)C1NCCc2cc(-c3ccc4c(Cl)cc(C(N)=O)n4n3)sc21 (centres undefined) | 0.97 | 1.03 | 1 | 2.04 | 1.46 | – | – | –
3 | COC1CCN(C(=O)c2ccc(-c3ccc4c(Cl)cc(C(N)=O)n4n3)c(F)c2)C1 (centres undefined) | 2.4 | 0.661 | 1.59 | – | – | – | – | –
4 | NC(=O)c1cc(Cl)c2ccc(-c3ccc(F)c(C(=O)N4CCN(C(=O)C5CC5)CC4)c3)nn12 | 11.6 | 0.166 | 1.92 | 7.03 | – | – | – | –
5 | NC(=O)c1cc(Cl)c2ccc(-c3ccc(C(=O)N4CCN(C(=O)C5CC5)CC4)cc3)nn12 | 2.5 | 0.443 | 1.1 | 2.48 | 9.54 | – | – | –
6 | NC(=O)c1cc(Cl)c2ccc(-c3cc4c(s3)CCNC4)nn12 | – | 0.00724 | 0.209 | 1.33 | 0.214 | – | – | –
7 | NC(=O)c1cc(Cl)c2ccc(-c3ccc(C(=O)N4CCN(C(=O)C5CC5)CC4)cc3F)nn12 | 10.7 | 0.219 | 2.32 | 2.31 | 2.95 | – | – | –
8 | COC1CCN(C(=O)c2ccc(-c3ccc4c(Cl)cc(C(N)=O)n4n3)cc2)C1 (centres undefined) | 4.74 | 0.362 | 1.71 | – | 9.64 | – | – | –
9 | CC(C)CC(=O)N1CCN(C(=O)c2ccc(-c3ccc4c(Cl)cc(C(N)=O)n4n3)cc2)CC1 | 2 | 0.502 | 1.01 | 5.75 | 3.84 | – | – | –
10 | O=C(c1cc(Cc2n[nH]c(=O)c3ccccc23)ccc1F)N1CCN(C(=O)C2CC2)CC1 [OLAPARIB] | – | – | – | – | – | 0.4 | 0.0114 | –
11 | CN1CCc2sc(-c3ccc4c(Cl)cc(C(N)=O)n4n3)cc2C1 | 2.3 | 0.157 | 0.363 | 2.64 | 3.05 | – | – | –
12 | NC(=O)c1cc(Cl)c2cc(-c3cc4c(s3)CNCC4)cnn12 | – | – | – | – | – | – | – | Dose-dependent effect
13 | CN1CCc2cc(-c3ccc4c(Cl)cc(C(N)=O)n4n3)sc2C1 | 2.7 | 0.141 | 0.382 | 3.62 | 2.58 | – | – | –
14 | CCN(CC)Cc1ccc(-c2ccc3c(Cl)cc(C(N)=O)n3n2)cc1 | 5.1 | 0.433 | 2.2 | 3.51 | 3.73 | – | – | –
15 | COC1CCN(C(=O)c2ccc(-c3ccc4c(Cl)cc(C(N)=O)n4n3)cc2)CC1 | 1.28 | 3.51 | 4.51 | 4.42 | – | – | – | –

Further lines, with some results ahead:

Row | Ratio IC50 (Homo sapiens) | IC50 [1] [µM] | IC50 [2] [µM] | Structure (SMILES) | CC50 ([3]; Cricetulus griseus, V-C8) [µM] | CC50 (MDA-MB-436 [4]; Homo sapiens, MDA-MB-436) [µM] | CC50 [3] [µM] | CC50 (MDA-MB-436 [4]) [µM] | TGI (MDA-MB-436 [5])
16 | 3.9 | 0.369 | 1.44 | CC(C)N1CCN(Cc2ccc(-c3ccc4c(Cl)cc(C(N)=O)n4n3)cc2)CC1 | 2.7 | 3.55 | – | – | –
17 | 1.4 | 0.818 | 1.13 | CN(C)C1CCN(Cc2ccc(-c3ccc4c(Cl)cc(C(N)=O)n4n3)cc2)CC1 | 2.78 | 5.48 | – | – | –
18 | 3 | 0.34 | 1.01 | NC(=O)c1cc(Cl)c2ccc(-c3ccc(C(=O)N4CCNCC4)cc3)nn12 | > 10 | 8.09 | – | – | –
19 | 0.92 | 1.08 | 0.997 | NC(=O)c1cc(Cl)c2ccc(-c3ccc(CN4CCN(C5CC5)CC4)cc3)nn12 | > 10 | 75.2 | – | – | –
20 | 2.6 | 0.432 | 1.12 | NC(=O)c1cc(Cl)c2ccc(-c3ccc(CN4CCCC4)cc3)nn12 | 2.15 | 5.4 | – | – | –
21 | 4.5 | 0.249 | 1.12 | CNCc1ccc(-c2ccc3c(Cl)cc(C(N)=O)n3n2)cc1 | 2 | 1.28 | – | – | –
22 | 7.5 | 0.0933 | 0.705 | CN(C)Cc1ccc(-c2ccc3c(Cl)cc(C(N)=O)n3n2)cc1 | 6.2 | 0.687 | – | – | –
23 | 0.13 | 3.33 | 0.445 | NC(=O)c1cc(Cl)c2ccc(-c3ccc(CN4CCN(c5ccc(C(F)(F)F)cc5)CC4)cc3)nn12 | > 10 | 8.09 | – | – | –
24 | 3.7 | 0.627 | 2.33 | NC(=O)c1cc(Cl)c2ccc(-c3ccc(CN4CCNCC4)cc3)nn12 | – | 9.67 | – | – | –
